Measured values as given in PubChem BioAssay AID2060486 (Molecular Pharmacology Branch, DTP, NCI, 2025).

System: IGROV1 complex spheroids (HUVEC, MSC), viability % test/control
Experiment: Anticancer human tumor IGROV1 cell line growth inhibition [GQUAD];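 note: spheroids exposed to compounds for 7 days before readout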;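 for viability, T/C: 100% = DMSO vehicle control viability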
Conditions: for IC50: curve of first compound; for viability, T/C: stronger effect = lower value
How it was run: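 Multi-cell-type spheroids of tumor cells with HUVEC and mesenchymal stem cells, treated with drug combinations. Concentrations descend in half-log steps from near clinical Cmax, or from 10 microM where Cmax is unknown; viability read-out.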

[1] = second compound 0.0316 µM, first compound 0.0316 µM
[2] = second compound 0.0316 µM, first compound 0.1 µM
[3] = second compound 0.0316 µM, first compound 0.316 µM
[4] = second compound 0.0316 µM, first compound 1 µM
[5] = second compound 0.0316 µM, first compound 3.16 µM
[6] = second compound 0.0316 µM, first compound 10 µM
[7] = second compound 0.1 µM, first compound 0.0316 µM
[8] = second compound 0.1 µM, first compound 0.1 µM
[9] = second compound 0.1 µM, first compound 0.316 µM
[10] = second compound 0.1 µM, first compound 1 µM
[11] = second compound 0.1 µM, first compound 3.16 µM
[12] = second compound 0.1 µM, first compound 10 µM
[13] = second compound 0.316 µM, first compound 0.0316 µM
[14] = second compound 0.316 µM, first compound 0.1 µM
[15] = second compound 0.316 µM, first compound 0.316 µM
[16] = second compound 0.316 µM, first compound 1 µM
[17] = second compound 0.316 µM, first compound 3.16 µM
[18] = second compound 0.316 µM, first compound 10 µM
[19] = second compound 1 µM, first compound 0.0316 µM
[20] = second compound 1 µM, first compound 0.1 µM
[21] = second compound 1 µM, first compound 0.316 µM
[22] = second compound 1 µM, first compound 1 µM
[23] = second compound 1 µM, first compound 3.16 µM
[24] = second compound 1 µM, first compound 10 µM
[25] = second compound 3.16 µM, first compound 0.0316 µM
[26] = second compound 3.16 µM, first compound 0.1 µM
[27] = second compound 3.16 µM, first compound 0.316 µM
[28] = second compound 3.16 µM, first compound 1 µM
[29] = second compound 3.16 µM, first compound 3.16 µM
[30] = second compound 3.16 µM, first compound 10 µM
[31] = second compound 10 µM, first compound 0.0316 µM
[32] = second compound 10 µM, first compound 0.1 µM
[33] = second compound 10 µM, first compound 0.316 µM
[34] = second compound 10 µM, first compound 1 µM
[35] = second compound 10 µM, first compound 3.16 µM
[36] = second compound 10 µM, first compound 10 µM

CC1COCCN1c1cc(C2(S(C)(=N)=O)CC2)nc(-c2ccnc3[nH]ccc23)n1 (centres undefined) + Cc1[nH]c2ccc(F)cc2c1-c1nc2c3cccnc3c3ncccc3c2[nH]1
IC50 (second compound 0.0316 µM): 986 nM
IC50 (second compound 0.1 µM): 884 nM
IC50 (second compound 0.316 µM): 426 nM
IC50 (second compound 1 µM): < 31.6 nM
IC50 (second compound 3.16 µM): < 31.6 nM
IC50 (second compound 10 µM): < 31.6 nM
viability, T/C [1]: 80%
viability, T/C [2]: 86.7%
viability, T/C [3]: 80.4%
viability, T/C [4]: 49.2%
viability, T/C [5]: 14.5%
viability, T/C [6]: 7.71%
viability, T/C [7]: 87.4%
viability, T/C [8]: 98.1%
viability, T/C [9]: 74.4%
viability, T/C [10]: 48.9%
viability, T/C [11]: 13.7%
viability, T/C [12]: 6.84%
viability, T/C [13]: 81.5%
viability, T/C [14]: 74.3%
viability, T/C [15]: 60.9%
viability, T/C [16]: 21.1%
viability, T/C [17]: 7.66%
viability, T/C [18]: 3.74%
viability, T/C [19]: 4.68%
viability, T/C [20]: 4.27%
viability, T/C [21]: 4.11%
viability, T/C [22]: 3.67%
viability, T/C [23]: 4.03%
viability, T/C [24]: 2.64%
viability, T/C [25]: 4.14%
viability, T/C [26]: 5.15%
viability, T/C [27]: 4.92%
viability, T/C [28]: 4.78%
viability, T/C [29]: 3.97%
viability, T/C [30]: 2.94%
viability, T/C [31]: 3.9%
viability, T/C [32]: 4.76%
viability, T/C [33]: 5.04%
viability, T/C [34]: 3.7%
viability, T/C [35]: 3.55%
viability, T/C [36]: 2.63%

COc1ccc([C@@H](O)c2cc(-c3ncnc4cc(N5CCOCC5)ccc34)c(F)cc2Cl)nn1 + Cc1[nH]c2ccc(F)cc2c1-c1nc2c3cccnc3c3ncccc3c2[nH]1
IC50 (second compound 0.0316 µM): 797 nM
IC50 (second compound 0.1 µM): 812 nM
IC50 (second compound 0.316 µM): 762 nM
IC50 (second compound 1 µM): < 31.6 nM
IC50 (second compound 3.16 µM): < 31.6 nM
IC50 (second compound 10 µM): < 31.6 nM
viability, T/C [1]: 92%
viability, T/C [2]: 76.5%
viability, T/C [3]: 86.5%
viability, T/C [4]: 40.7%
viability, T/C [5]: 21.9%
viability, T/C [6]: 6.2%
viability, T/C [7]: 92.2%
viability, T/C [8]: 89.6%
viability, T/C [9]: 91.5%
viability, T/C [10]: 40.6%
viability, T/C [11]: 19.5%
viability, T/C [12]: 5.14%
viability, T/C [13]: 66.3%
viability, T/C [14]: 83.1%
viability, T/C [15]: 82.6%
viability, T/C [16]: 41.5%
viability, T/C [17]: 12.3%
viability, T/C [18]: 4.85%
viability, T/C [19]: 3.85%
viability, T/C [20]: 4.89%
viability, T/C [21]: 4.79%
viability, T/C [22]: 4.97%
viability, T/C [23]: 4%
viability, T/C [24]: 5.1%
viability, T/C [25]: 3.89%
viability, T/C [26]: 4.57%
viability, T/C [27]: 3.71%
viability, T/C [28]: 4.88%
viability, T/C [29]: 3.87%
viability, T/C [30]: 3.46%
viability, T/C [31]: 3.68%
viability, T/C [32]: 3.5%
viability, T/C [33]: 4.28%
viability, T/C [34]: 4.13%
viability, T/C [35]: 5.35%
viability, T/C [36]: 3.84%
